The values below are quoted from earlier work in patent publication US9827309B2, “Treating cancer with a combination of a PD-1 antagonist and dinaciclib” (Merck Sharp & Dohme Corp., priority 2013, dated 2017).

For the data set the following is noted: clinical trials; cited from earlier work.

For `CCc1cnn2c(NCc3ccc[n+]([O-])c3)cc(N3CCCC[C@H]3CCO)nc12` [Dinaciclib, 1-[3-ethyl-7-[[(1-oxido-3-pyridinyl)methyl]amino]pyrazolo[1,5-a]pyrimidin-5-yl]-2(S)-piperidineethanol], the “most common dose-limiting toxicity” value was “neutropenia”.
